O.O=c1c(O)c(-c2ccc(O)cc2)oc2cc(O)cc(O)c12
solubility (mole fraction) (in ethanol, 283.15 K): 0.00668
solubility (mole fraction) (in ethanol, 288.15 K): 0.00812
solubility (mole fraction) (in ethanol, 293.15 K): 0.00993
solubility (mole fraction) (in ethanol, 298.15 K): 0.0121
solubility (mole fraction) (in ethanol, 303.15 K): 0.0146
solubility (mole fraction) (in ethanol, 308.15 K): 0.0178
solubility (mole fraction) (in ethanol, 313.15 K): 0.0212
solubility (mole fraction) (in ethanol, 318.15 K): 0.025
solubility (mole fraction) (in ethanol, 323.15 K): 0.0295
solubility (mole fraction) (in isopropanol, 283.15 K): 0.00356
solubility (mole fraction) (in isopropanol, 288.15 K): 0.00502
solubility (mole fraction) (in isopropanol, 293.15 K): 0.00676
solubility (mole fraction) (in isopropanol, 298.15 K): 0.00907
solubility (mole fraction) (in isopropanol, 303.15 K): 0.0126
solubility (mole fraction) (in isopropanol, 308.15 K): 0.0171
solubility (mole fraction) (in isopropanol, 313.15 K): 0.0222
solubility (mole fraction) (in isopropanol, 318.25 K): 0.0281
solubility (mole fraction) (in isopropanol, 323.15 K): 0.036
solubility (mole fraction) (in n-butanol, 283.15 K): 0.00626
solubility (mole fraction) (in n-butanol, 288.15 K): 0.00772
solubility (mole fraction) (in n-butanol, 293.15 K): 0.00935
solubility (mole fraction) (in n-butanol, 298.15 K): 0.0113
solubility (mole fraction) (in n-butanol, 303.15 K): 0.0137
solubility (mole fraction) (in n-butanol, 308.15 K): 0.0164
solubility (mole fraction) (in n-butanol, 313.15 K): 0.0197
solubility (mole fraction) (in n-butanol, 318.15 K): 0.0236
solubility (mole fraction) (in n-butanol, 323.15 K): 0.028
solubility (mole fraction) (in n-propanol, 283.15 K): 0.00621
solubility (mole fraction) (in n-propanol, 288.15 K): 0.00727
solubility (mole fraction) (in n-propanol, 293.15 K): 0.00861
solubility (mole fraction) (in n-propanol, 298.15 K): 0.0103
solubility (mole fraction) (in n-propanol, 303.15 K): 0.0121
solubility (mole fraction) (in n-propanol, 308.15 K): 0.014
solubility (mole fraction) (in n-propanol, 313.15 K): 0.0162
solubility (mole fraction) (in n-propanol, 318.15 K): 0.0188
solubility (mole fraction) (in n-propanol, 323.15 K): 0.0217
solubility (mole fraction) (in sec-butanol, 283.15 K): 0.00599
solubility (mole fraction) (in sec-butanol, 288.15 K): 0.00758
solubility (mole fraction) (in sec-butanol, 293.15 K): 0.00926
solubility (mole fraction) (in sec-butanol, 298.15 K): 0.0114
solubility (mole fraction) (in sec-butanol, 303.15 K): 0.0138
solubility (mole fraction) (in sec-butanol, 308.15 K): 0.0164
solubility (mole fraction) (in sec-butanol, 313.15 K): 0.0196
solubility (mole fraction) (in sec-butanol, 318.15 K): 0.0236
solubility (mole fraction) (in sec-butanol, 323.15 K): 0.0285

Source: BigSolDB 2.1
